# Measurements: publication PMC8581430, “Peptide ligands targeting FGF receptors promote recovery from dorsal root crush injury via AKT/mTOR signaling” (Theranostics, 2021)
# Test system: AKT (phosphorylated) in DRG explants
# Experiment: Western blot of phosphorylated AKT in DRG explants
# Type: cell-based, rat
# Conditions: CH02 20 μM + BGJ398 2 μM, 4 h, n = 3
# Text: Figure 6 Phosphoproteomic profiling of the intracellular signaling pathway used by CH02 for augmenting nerve regeneration. (A) GO biological process analysis of proteins corresponding to differentially expressed phosphorylated peptides. Ordinates indicate the enriched GO terms; abscissae represent the gene ratio; size of the dots indicates the number of proteins enriched in this biological process. (B) KEGG pathway analysis of proteins corresponding to differentially expressed phosphorylated peptides. Ordinates indicate the enriched pathway term; abscissae represent the gene ratio; size of the dots indicates number of proteins enriched in this pathway. […] (D-E) Quantification of p-ERK1/2 and p-AKT expression levels. n = 3 independent experiments. Relative protein expression level was quantified after normalization to the corresponding total proteins. […] (G-H) Quantification of p-ERK1/2 and p-AKT expression levels. n = 3 independent experiments. Relative protein expression level was quantified after normalization to the corresponding total proteins. […] The axon is shown in fluorescence (NF200) images. […] For quantification of axon length, neurons were immunostained using an antibody against β-tubulin. […] (N) Quantification of TUNEL-positive neurons (M) using ImageJ software (n = 5 for each condition; ***p < 0.001 by one-way ANOVA with Dunnett's test; mean ± SEM). […]
smiles,measurement,value
CCN1CCN(c2ccc(Nc3cc(N(C)C(=O)Nc4c(Cl)c(OC)cc(OC)c4Cl)ncn3)cc2)CC1 [BGJ398],effect of inhibitor on CH02-upregulated phosphorylated AKT,counteracted CH02 effect on upregulating phosphorylated AKT and ERK levels
